Data: patent publication EP1126023A1, “METHOD FOR INDUCING CELLULAR IMMUNITY AND CELLS WITH INDUCED CELLULAR IMMUNITY” (MITSUBISHI CHEMICAL CORPORATION, priority 1998, dated 2000)

System: CD8-positive HLA-A2402-restrictive CTL clones specific for the ErbB2 p63-71 peptide
Assay: Stimulating activity of treated dendritic cells on proliferation of CTL clone
Type: cell-based, human
Conditions: HLA-A2402 dendritic cells treated at protein concentration of 100 µg/ml for 3 hours or peptide-pulsed; compared to the non-treated dendritic cells; Fig. 3
Description: The dendritic cells, prepared from healthy human peripheral blood monocytes having HLA-A2402 as described above, were cultured with the CHP-ErbB2 suspension, the ErbB2 protein alone, the CHP-CAB suspension, or the CAB protein alone each at a protein concentration of 100 µ g/ml for 3 hours. The cells were washed and then further cultured for 15 hours.
By using these dendritic cells and the ErbB2 p63-71 peptide-pulsed dendritic cells derived from the same individual as stimulating cells, their abilities of stimulation were examined on the aforementioned CD8-positive HLA-A2402-restrictive CTL clones specific for the ErbB2 p63-71 peptide.

p63-71 peptide: peptide having the 63-71 amino acid sequence of HER2, positive control (TYLPTNASL)
stimulation and proliferation of the CTL clone: significantly stimulate the CTL clone and induce proliferation
